From patent US20090324508A1, “Broad Spectrum and Skin Friendly Disinfecting Composition” (CENTENNIAL VENTURES B.V., priority 2006, published 2009)

Assay: Foam test, dispensing from a foam dispenser
Assay type: physicochemical
Details: in the presence of an alcohol
Method: Preferably, the foam booster used in the composition of the invention provides a stable foam when dispensing a composition consisting of 36% (w/w) ethanol and 0.2% (w/w), preferably 0.3% (w/w), of the foam booster from a foam dispenser with a relatively high air to liquid ratio, preferably an air to liquid ratio of 9-11, more preferably an air to liquid ratio of 11, on an inert and smooth surface at about 20° C. A suitable foam pump is for instance the L11 foam pump from Rexam Airspray, which has an air to liquid ratio of 11, a liquid output volume of 0.75 ml, a stroke of 14.8 mm. The foam is optimally produced by applying regular speed and pressure onto the foam dispenser, as is known to one skilled in the art.
According to this invention, a stable foam is a foam that remains as a foam for at least 5-10 seconds, preferably for at least 10-15 seconds, more preferably for at least 15-20 seconds, even more preferably for at least 20-25 seconds, most preferably for at least 25-30 seconds, as measured immediately after dispensing from a foam dispenser as mentioned above.

| Compound | Foam stability as foam booster |
| --- | --- |
| sodium lauryl ether sulphate | do not provide a stable foam |
| CCCCCCCCCCCCc1ccc(S(=O)(=O)O)cc1 [dodecyl benzene sulphonic acid] | do not provide a stable foam |
